We go through 113 compounds from a melting point compilation (Tetko et al.).

Molecules are shown by their SMILES.

For the compound `CCOC(=O)NC1C(N(C)C)C2CCC1(C)C2(C)C` (stereo not drawn), the melting point is 237 °C.
Take `COc1ccc2c(OC)cccc2c1`: the melting point is 58.5 °C.
For `CCCC(CCC)C(C(=O)O)C(=O)OCC` (stereo not drawn), the melting point lay in the range of 30 to 34 °C.
Compound `O=C(c1ccccc1)c1ccccc1C(=O)c1ccccc1` displayed a melting point of 146 °C.
In turn, `Cn1ncc(N2CCOCC2)c(Cl)c1=O` yielded a melting point of 131 to 133 °C.
Under `CN(C)C(=O)C(CCN1CCC(O)(c2ccc(Cl)cc2)CC1)(c1ccccc1)c1ccccc1` stands 228 °C.
On to `Cc1cccc2c1C(=O)NC2=O`, for which the melting point lay in the range of 183 to 189 °C.
Under `O=C(c1ccc(F)cc1)N1CCCCC1` stands 60 to 62 °C.
The compound `Cc1[nH]c2nc(C(F)(F)F)nn2c(=O)c1Cl` yielded a melting point of 215 °C.
`O=C(O)c1ccc(-c2ccccc2F)cc1` displayed a melting point of 234 to 236 °C.
Turning to `CC1=CC(C)(C)Nc2ccccc21`, the melting point came out at 26.5 °C.
Under `CC12CCC(C(Br)(CBr)C1=O)C2(C)C` (stereo not drawn) stands 109 °C; under `CNC(=O)ON=C(C)C(C)S(C)(=O)=O` (stereo not drawn), 87 °C; under `Cc1ccc2[nH]c(S)nc2c1`, 290 to 293 °C.
The compound `COc1nc(C)nc(NC(=O)NS(=O)(=O)c2ccccc2Cl)n1` displayed a melting point of 176 °C.
Turning to `O=Cc1c[nH]c2ccc(Cl)cc12`, the melting point is 211 °C.
`Cc1c(-c2ccccc2)n(C)c2ccccc12` yielded a melting point of 69 °C.
In turn, `CC(=O)c1ccc(N2CCCCC2)cc1` gave a melting point of 84 to 90 °C.
With `CCc1ccsc1`, the melting point was -89.1 °C.
Take `O=C(C1=NOC2C(=O)N(c3ccc(F)cc3)C(=O)C12)c1ccc2ccccc2c1` (stereo not drawn): the melting point was found to be 193 °C.
In turn, `CC12CCC(=O)CC1CCC1C2CCC2(C)C(O)(C(=O)CO)CCC12O` (stereo not drawn) gave a melting point of 218 °C.
With `Cc1cccc2ccc3ccccc3c12`, the melting point came out at 53.5 °C.
`Cc1cc(C)c(CS)c(C)c1` yielded a melting point of 47 °C.
As to `CCOC(=O)CSc1nc(=O)[nH]c2c1CCCC2`, the melting point lay within 192 to 193 °C.
In turn, `O=C(OCC(=O)N1CCCC1)c1ccccc1` showed a melting point of 58 °C.
In turn, `Clc1ccc(OCCCI)cc1` showed a melting point of 31 to 33 °C.
Consider `Nc1c(F)c(F)c(Br)c(F)c1F`, for which the melting point was 59 to 61 °C.
Under `C=C(C)C(C)(C)CC` stands -69 °C; under `N#Cc1ncccc1N1CCCCC1`, 67 to 69 °C; under `CCOC(=O)C1=Nc2cc3c(cc2=C1OC(C)=O)C(OC(C)=O)=C(C(=O)OCC)N=3`, 178 °C.
Compound `CC(C)C1CCC2(C)CC(O)C3(C)CCC12O3` (stereo not drawn) came in with a melting point of 114 °C.
Take `CCCCCSc1ncccc1C(=O)O`: the melting point lay within 118 to 120 °C.
In turn, `O=C(O)c1c(Cl)cccc1[N+](=O)[O-]` had a melting point of 164 °C.
In turn, `Oc1nc(S)c2nc[nH]c2n1` yielded a melting point of 300 °C.
For `Cc1cccc2cc3ccccc3cc12`, the melting point was found to be 85.5 °C.
The value for `O=C(Nc1ccccn1)c1cc([N+](=O)[O-])cc([N+](=O)[O-])c1` was 201 °C.
Regarding `COc1cc(Cc2nccc3cc(OC)c(O)cc23)ccc1O`, the melting point worked out at 209 °C.
The value for `COc1ccc(S(=O)(=O)Cl)cc1` was 40 to 42 °C; that for `CCOC(=O)c1cc2cc(OC(F)(F)F)ccc2[nH]1` was 144 to 145 °C.
Compound `CCN(CCO)CCCC(C)Nc1ccnc2cc(Cl)ccc12` (stereo not drawn) had a melting point of 90 °C.
For `CCSc1nc(N)nc(C(C)C)n1`, the melting point lay within 115 to 117 °C.
The compound `N#Cc1cccc(Cn2cncn2)c1` displayed a melting point of 91 to 92 °C.
`CN1CC(=O)NC1=N` showed a melting point of 255 °C.
Under `CN(C)c1ccc(C2CC(=O)CC(=O)C2)cc1` stands 201 to 204 °C; under `CCCC(=O)c1c(C)cc(C)c(C2CC(=O)C(C(CC)=NOCC)=C(O)C2)c1C` (stereo not drawn), 80.8 °C.
As to `O=C1CCC(c2ccc(NC(=O)c3cccc(C(F)(F)F)c3)cc2)=NN1`, the melting point was 234 to 235 °C.
Compound `CC(CC(C(N)=O)(c1ccccc1)c1ccccc1)N(C)C` (stereo not drawn) displayed a melting point of 137 °C.
The compound `O=C1/C(=N\Nc2cccc(F)c2)C(C(F)(F)F)=NN1c1ccccc1` had a melting point of 105 to 107 °C.
Under `Clc1ccc2c(c1)Oc1ccc(Cl)cc1O2` stands 202 °C; under `Cc1nnc(S)n1-c1ccc(OCc2ccccc2)cc1`, 255 to 257 °C.
The value for `BrCc1ccc(-n2cccn2)cc1` was 81 to 83 °C.
`O=C(Cc1ccccc1[N+](=O)[O-])c1ccccc1[N+](=O)[O-]`: the melting point stood at 166 °C.
The value for `CC1(O)C(=O)CC2CC1C2(C)C` (stereo not drawn) was 38.5 °C; that for `O=CNc1ccc(C2=NNC(=O)CC2)cc1` was 253 to 256 °C; that for `O=C(CBr)OCc1ccc([N+](=O)[O-])cc1` was 50 °C.
Take `O=C1c2ccccc2C(=O)c2c(NCCO)ccc(NCCO)c21`: the melting point stood at 248 °C.
In the case of `O=C(CBr)c1ccnc(Cl)c1`, the melting point lay in the range of 55 to 56.5 °C.
For the compound `CN1CCOc2cc(Br)cnc21`, the melting point lay within 77 to 79 °C.
Regarding `c1ccc(-c2noc(-c3ccccc3)n2)cc1`, the melting point turned out to be 109 °C.
`Cc1cc(N)on1` had a melting point of 83 °C.
Consider `O=C(O)C1CCCC1C(=O)O` (stereo not drawn), for which the melting point was found to be 160 °C.
In turn, `CC(=Cc1ccccc1)c1ccccc1` yielded a melting point of 82 °C.
Compound `CCCC(=O)c1cc(O)c(O)cc1O` displayed a melting point of 154 °C.
Compound `CC12CCC3=C(CC[C@]4(C)C(=O)CC[C@@H]34)[C@H]1CCC(=O)C2` (stereo partly drawn) returned a melting point of 149 °C.
Under `BrCc1ccc2nsnc2c1` stands 91 °C; under `O=C1CSc2ccccc2N1`, 178 to 181 °C; under `N#Cc1c(F)cccc1OCC(F)(F)F`, 88 to 90 °C.
In turn, `CC(=O)NC1Cc2ccccc21` (stereo not drawn) had a melting point of 123 °C.
`c1cc2[nH]cnc2cn1` displayed a melting point of 172 °C.
Turning to `O=C(Nc1ccccc1)c1ccccc1[N+](=O)[O-]`, the melting point was found to be 154 °C.
The compound `CC(=O)CCc1oc2ccc(C)cc2c1-c1ccc(C)o1` registered a melting point of 76 °C.
With `O=c1[nH]c(=O)n(C2OC(CO)C(O)C2O)cc1F` (stereo not drawn), the melting point lay in the range of 180 to 183 °C.
`O=S(=O)(Cl)c1cc(Cl)ccc1Cl` displayed a melting point of 38 °C.
Consider `OCCN1CCN(CCCN2c3ccccc3Sc3ccc(Cl)cc32)CC1`, for which the melting point was found to be 94 °C.
Turning to `CC(=O)NNC(N)=S`, the melting point was in the range of 165 to 170 °C.
`N#Cc1c(C(F)(F)F)cc(-c2ccccc2)nc1S` registered a melting point of 181 °C.
As to `Oc1ncccc1Br`, the melting point stood at 187 °C.
With `Cc1ccc2[nH]c3ccccc3c2c1`, the melting point came out at 208 °C.
In turn, `CCSc1ccc2c(c1)N(CCCN1CCN(C)CC1)c1ccccc1S2` gave a melting point of 63 °C.
As to `CC(C)Oc1cc(-n2nc(C(C)(C)C)oc2=O)c(Cl)cc1Cl`, the melting point was 90 °C.
`O=C(O)C1(c2cccc(F)c2)CCCC1`: the melting point lay in the range of 149 to 153 °C.
On to `CCCCOC(=O)C(C)O` (stereo not drawn), for which the melting point is -28 °C.
`N#Cc1ccoc1` came in with a melting point of 29 to 31 °C.
With `OC1CCN(c2nccc(C(F)(F)F)n2)CC1`, the melting point fell in the range of 99 to 100 °C.
The compound `CNCc1ccc(-c2noc(C)n2)cc1` gave a melting point of 51 to 53 °C.
For `NS(=O)(=O)c1ccc(Oc2ccccc2)cc1`, the melting point worked out at 131 °C.
With `CCCCCCCCCCCC(C)CC` (stereo not drawn), the melting point is -32 °C.
On to `COc1ccc(/C=c2\sc3nc4ccccc4n3c2=O)cc1OC`, for which the melting point lay in the range of 220 to 222 °C.
The value for `O=C1c2ccccc2CC2C=CC=CN12` (stereo not drawn) was 93 °C; that for `NC(=S)c1ccc2c(c1)CCO2` was 145 to 155 °C.
The value for `CC12CC(=CO)C(=O)CC1CCC1C2CCC2(C)C1CCC2(C)O` (stereo not drawn) was 188 °C.
The value for `ClC1CCCC1` was -50 °C.
Regarding `NC(=O)c1nn(-c2ccccc2)c2ncnc(N)c12`, the melting point was determined as 295 °C.
As to `FC(F)(F)c1nn(CN2CCN(Cn3nc(C(F)(F)F)n(N=Cc4ccc5c(c4)OCO5)c3=S)CC2)c(=S)n1N=Cc1ccc2c(c1)OCO2`, the melting point was determined as 156 °C.
In the case of `CCOC(=O)C(C#N)=C(N)c1cc2cc(Br)cc(Br)c2oc1=O`, the melting point lay within 258 to 260 °C.
Compound `O=[N+]([O-])c1ccc2[nH]c3c(c2c1)CCN(Cc1ccccc1)C3` showed a melting point of 213 to 214 °C.
With `COc1ccc(Cl)cc1C#N`, the melting point was 100 °C.
`Cn1nc(-c2cccs2)cc1CO`: the melting point fell in the range of 95 to 96 °C.
Under `S=C(/N=N/c1ccccc1)NNc1ccccc1` stands 168 °C.
Take `NC(=S)Nc1cccc2ccccc12`: the melting point was in the range of 193 to 197 °C.
In turn, `Clc1ccc(C2C3CCc4ccccc4C3=NN2c2ccccc2)cc1` (stereo not drawn) registered a melting point of 168 to 170 °C.
For the compound `O=C(O)CNC(CO)(CO)CO`, the melting point stood at 187 °C.
For `Cc1ccccc1C#N`, the melting point is -13.5 °C.
In turn, `O=C(O)CC1C=CCC1` (stereo not drawn) yielded a melting point of 19 °C.
In turn, `N[C@@H](Cc1ccc(OCc2ccccc2)cc1)C(=O)O` showed a melting point of 259 °C.
The value for `CN[C@@H](Cc1ccc(O)cc1)C(=O)O` was 293 °C.
Turning to `O=C(c1ccccc1)c1ccc2n1CCC2C(=O)O` (stereo not drawn), the melting point was determined as 160 °C.
In turn, `N#Cc1cc(Br)ccc1N` gave a melting point of 93 to 98 °C.
`O=C(O)c1ccccc1Cc1ccccc1` came in with a melting point of 118 °C.
Under `N[C@H]1CC[C@@H](C(=O)O)CC1` stands 300 °C.
For `N#Cc1ccccc1COc1ccccc1`, the melting point fell in the range of 62 to 64 °C.
As for `COc1cc(C(=O)c2ccc(Cl)cc2Cl)c([N+](=O)[O-])cc1OC`, the melting point came out at 114 °C.
The value for `Fc1cnc(Cl)nc1Cl` was 38 °C.

As usually defined, the melting point is the temperature, or range, at which the solid turns liquid.
